From patent publication US20090137661A1, “PLANT DERIVED COMPOUNDS AND COMPOUND FORMULAE CONTAINING THE SAME FOR THE TREATMENT OF CERVICAL CANCER” (priority 2007, published 2009)
≈ marks a conversion by molar mass, not a printed value. Counter-ions that a name gives are not always drawn. Like-named read-outs stand apart in the source and are kept apart here.

How the values were obtained:
HeLa cells = test: Cytotoxicity assay (MTT assay) on HeLa cells; conditions: for IC50: Homo sapiens, HeLa
Procedure: HeLa cell line was obtained from Dr. S. S. Shen (Biomedical Engineering Research Laboratories of Industrial Technology Research Institute of Taiwan). HeLa cells are adherent cells and were propagated and maintained in Dulbecco's modified Eagle's medium (DMEM) supplemented with 10% fetal bovine serum (FBS), […] sodium bicarbonate (NaHCO3), 1 mM sodium pyruvate, and 0.1 mM non-essential amino acid.
(§1) Cytotoxicity Assay (MTT Assay)
The cytotoxicity of the compounds set forth herein to HeLa cells and HUVEC cells were determined by the MTT assay. The HUVEC cells were used to understand the cytotoxicity of said compounds to normal human cells. Besides, doxorubicin HCl was used as a comparative example so as to investigate the efficacy of the compounds according to the embodiments of the present invention.
Briefly, the MTT assay comprises the following steps: • (A) Cells were seeded in 96-well plates 3 hours before treatment, wherein the density of HeLa cell is 1×10^4 cells per well and the density of HUVEC cell is 2×10^4 cells per well; • (B) Cells were then treated with various concentrations of tested samples and incubated for a predetermined period (24, 48, and 72 hours); • (C) After the predetermined periods expired, the tested samples were removed and 100 μl MTT reagent (1 mg/ml) was added to each well; • (D) The plates were incubated at 37° C. with 5% of CO2 for 5 hours; • (E) The MTT reagent was removed and 100 μl DMSO was added to each well; • (F) The optical density (O.D.) of each well was determined by ELISA reader at a wavelength of 560 nm.
Each experiment was repeated for 3 times and the result shown in the tables herein were the mean value of the 3 repetitions. The O.D. of the vehicle control and experimental groups were recorded. The cell survival rate of each sample was calculated as follows:
Cell survival rate(%)=O.D.control/O.D.experimental*100%
Then, the cell survival rate was plotted against the compound concentration and the IC50 value of each compound was calculated by the GraFit data analysis software (Erithacus Software Ltd.).

HUVEC cells = test: Cytotoxicity assay (MTT assay) on HUVEC cells; type: cell-based, human; conditions: for IC50: Homo sapiens
Source text: Human umbilical vein endothelial cells (HUVEC) were purchased from Food Industry Research and Development Institute in Hsin-Chu City, Taiwan. HUVEC cells were propagated and maintained in Medium 199 supplemented with 10% FBS, Heparin, and […].
as §1

[1] = 24 h, read-out: IC50 at 24 hours, HeLa
[2] = 48 h, read-out: IC50 at 48 hours, HeLa
[3] = 72 h, read-out: IC50 at 72 hours, HeLa
[4] = HUVEC cells, 24 hours, read-out: IC50 at 24 hours, HUVEC
[5] = HUVEC cells, 48 hours, read-out: IC50 at 48 hours, HUVEC
[6] = HUVEC cells, 72 hours, read-out: IC50 at 72 hours, HUVEC

O=C(O)[C@H]1O[C@@H](Oc2cc3oc(-c4ccccc4)cc(=O)c3c(O)c2O)[C@H](O)[C@@H](O)[C@@H]1O [Compound G, baicalin]
HeLa Cell Survival Rate (HeLa cells; 0.1 μg/ml, 24 hrs): 104%
HeLa Cell Survival Rate (HeLa cells; 0.1 μg/ml, 48 hrs): 94%
HeLa Cell Survival Rate (HeLa cells; 0.1 μg/ml, 72 hrs): 97%
HeLa Cell Survival Rate (HeLa cells; 1 μg/ml, 24 hrs): 103%
HeLa Cell Survival Rate (HeLa cells; 1 μg/ml, 48 hrs): 96%
HeLa Cell Survival Rate (HeLa cells; 1 μg/ml, 72 hrs): 97%
HeLa Cell Survival Rate (HeLa cells; 10 μg/ml, 24 hrs): 109%
HeLa Cell Survival Rate (HeLa cells; 10 μg/ml, 48 hrs): 98%
HeLa Cell Survival Rate (HeLa cells; 10 μg/ml, 72 hrs): 97%
HeLa Cell Survival Rate (HeLa cells; 100 μg/ml, 24 hrs): 68%
HeLa Cell Survival Rate (HeLa cells; 100 μg/ml, 48 hrs): 50%
HeLa Cell Survival Rate (HeLa cells; 100 μg/ml, 72 hrs): 37%
HUVEC/HeLa ratio of IC50 (HeLa cells; 72 hours): 2.4
IC50 (HeLa cells; [1]): > 125 µg/mL
IC50 (HeLa cells; [2]): > 125 µg/mL
IC50 (HeLa cells; [3]): 92 µg/mL (≈ 206 µM)
HUVEC Cell Survival Rate (HUVEC cells; 1.25 μg/ml, 24 hrs): 98%
HUVEC Cell Survival Rate (HUVEC cells; 1.25 μg/ml, 48 hrs): 96%
HUVEC Cell Survival Rate (HUVEC cells; 1.25 μg/ml, 72 hrs): 88%
HUVEC Cell Survival Rate (HUVEC cells; 12.5 μg/ml, 24 hrs): 97%
HUVEC Cell Survival Rate (HUVEC cells; 12.5 μg/ml, 48 hrs): 101%
HUVEC Cell Survival Rate (HUVEC cells; 12.5 μg/ml, 72 hrs): 75%
HUVEC Cell Survival Rate (HUVEC cells; 125 μg/ml, 24 hrs): 81%
HUVEC Cell Survival Rate (HUVEC cells; 125 μg/ml, 48 hrs): 76%
HUVEC Cell Survival Rate (HUVEC cells; 125 μg/ml, 72 hrs): 56%
IC50 (HUVEC cells; [4]): > 125 µg/mL
IC50 (HUVEC cells; [5]): > 125 µg/mL
IC50 (HUVEC cells; [6]): 218 µg/mL (≈ 488 µM)

COc1ccc2cc3[n+](cc2c1OC)CCc1cc2c(cc1-3)OCO2.[Cl-] [Compound H, berberine hydrochloride]
cytotoxicity to HeLa cells compared with Doxorubicin HCl (HeLa cells): higher cytotoxicity
HeLa Cell Survival Rate (HeLa cells; 0.1 μg/ml, 24 hrs): 89%
HeLa Cell Survival Rate (HeLa cells; 0.1 μg/ml, 48 hrs): 98%
HeLa Cell Survival Rate (HeLa cells; 0.1 μg/ml, 72 hrs): 98%
HeLa Cell Survival Rate (HeLa cells; 1 μg/ml, 24 hrs): 87%
HeLa Cell Survival Rate (HeLa cells; 1 μg/ml, 48 hrs): 84%
HeLa Cell Survival Rate (HeLa cells; 1 μg/ml, 72 hrs): 91%
HeLa Cell Survival Rate (HeLa cells; 10 μg/ml, 24 hrs): 82%
HeLa Cell Survival Rate (HeLa cells; 10 μg/ml, 48 hrs): 71%
HeLa Cell Survival Rate (HeLa cells; 10 μg/ml, 72 hrs): 62%
HeLa Cell Survival Rate (HeLa cells; 100 μg/ml, 24 hrs): 28%
HeLa Cell Survival Rate (HeLa cells; 100 μg/ml, 48 hrs): 17%
HeLa Cell Survival Rate (HeLa cells; 100 μg/ml, 72 hrs): 10%
HUVEC/HeLa ratio of IC50 (HeLa cells; 24 hours): 0.8
HUVEC/HeLa ratio of IC50 (HeLa cells; 48 hours): 0.7
HUVEC/HeLa ratio of IC50 (HeLa cells; 72 hours): 0.6
IC50 at 24 hours, HeLa (HeLa cells; HeLa cells, 24 hours): 39 µg/mL
IC50 at 72 hours, HeLa (HeLa cells; HeLa cells, 72 hours): 15 µg/mL
IC50 for inhibiting HeLa cells as restated in text (HeLa cells; values taken from tables 4 and 5 (48 hours), unit inferred): 21 µg/mL
HUVEC Cell Survival Rate (HUVEC cells; 1 μg/ml, 24 hrs): 89%
HUVEC Cell Survival Rate (HUVEC cells; 1 μg/ml, 48 hrs): 81%
HUVEC Cell Survival Rate (HUVEC cells; 1 μg/ml, 72 hrs): 77%
HUVEC Cell Survival Rate (HUVEC cells; 10 μg/ml, 24 hrs): 76%
HUVEC Cell Survival Rate (HUVEC cells; 10 μg/ml, 48 hrs): 64%
HUVEC Cell Survival Rate (HUVEC cells; 10 μg/ml, 72 hrs): 51%
HUVEC Cell Survival Rate (HUVEC cells; 100 μg/ml, 24 hrs): 23%
HUVEC Cell Survival Rate (HUVEC cells; 100 μg/ml, 48 hrs): 16%
HUVEC Cell Survival Rate (HUVEC cells; 100 μg/ml, 72 hrs): 15%
IC50 at 24 hours, HUVEC (HUVEC cells; HUVEC cells, 24 hours): 30 µg/mL
IC50 at 48 hours, HUVEC (HUVEC cells; HUVEC cells, 48 hours): 15 µg/mL
IC50 at 72 hours, HUVEC (HUVEC cells; HUVEC cells, 72 hours): 9 µg/mL

COc1cccc2c1C(=O)c1c(O)c3c(c(O)c1C2=O)C[C@@](O)(C(=O)CO)C[C@@H]3O[C@H]1C[C@H](N)[C@H](O)[C@H](C)O1 [Doxorubin HCl, Doxorubicin HCl, reference compound]
HeLa Cell Survival Rate (HeLa cells; 0.00058 μg/ml, 24 hrs): 96%
HeLa Cell Survival Rate (HeLa cells; 0.00058 μg/ml, 48 hrs): 100%
HeLa Cell Survival Rate (HeLa cells; 0.00058 μg/ml, 72 hrs): 97%
HeLa Cell Survival Rate (HeLa cells; 0.0058 μg/ml, 24 hrs): 95%
HeLa Cell Survival Rate (HeLa cells; 0.0058 μg/ml, 48 hrs): 92%
HeLa Cell Survival Rate (HeLa cells; 0.0058 μg/ml, 72 hrs): 89%
HeLa Cell Survival Rate (HeLa cells; 0.058 μg/ml, 24 hrs): 84%
HeLa Cell Survival Rate (HeLa cells; 0.058 μg/ml, 48 hrs): 81%
HeLa Cell Survival Rate (HeLa cells; 0.058 μg/ml, 72 hrs): 72%
HeLa Cell Survival Rate (HeLa cells; 0.58 μg/ml, 24 hrs): 46%
HeLa Cell Survival Rate (HeLa cells; 0.58 μg/ml, 48 hrs): 23%
HeLa Cell Survival Rate (HeLa cells; 0.58 μg/ml, 72 hrs): 11%
HUVEC/HeLa ratio of IC50 (HeLa cells; 24 hours): >1.2
HUVEC/HeLa ratio of IC50 (HeLa cells; 48 hours): 1.5
HUVEC/HeLa ratio of IC50 (HeLa cells; 72 hours): 1.8
IC50 (HeLa cells; [1]): 0.48 µg/mL
IC50 (HeLa cells; [2]): 0.2 µg/mL
IC50 (HeLa cells; [3]): 0.12 µg/mL
HUVEC Cell Survival Rate (HUVEC cells; 0.145 μg/ml, 24 hrs): 111%
HUVEC Cell Survival Rate (HUVEC cells; 0.145 μg/ml, 48 hrs): 77%
HUVEC Cell Survival Rate (HUVEC cells; 0.145 μg/ml, 72 hrs): 68%
HUVEC Cell Survival Rate (HUVEC cells; 0.290 μg/ml, 24 hrs): 100%
HUVEC Cell Survival Rate (HUVEC cells; 0.290 μg/ml, 48 hrs): 56%
HUVEC Cell Survival Rate (HUVEC cells; 0.290 μg/ml, 72 hrs): 38%
HUVEC Cell Survival Rate (HUVEC cells; 0.580 μg/ml, 24 hrs): 90%
HUVEC Cell Survival Rate (HUVEC cells; 0.580 μg/ml, 48 hrs): 19%
HUVEC Cell Survival Rate (HUVEC cells; 0.580 μg/ml, 72 hrs): 14%
IC50 (HUVEC cells; [4]): > 0.58 µg/mL
IC50 (HUVEC cells; [5]): 0.299 µg/mL
IC50 (HUVEC cells; [6]): 0.22 µg/mL
